In PubChem BioAssay (NCI):
“And” between values parts separate entries of the source, which are not always exact repeats. Equal values may be shown once.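 All cell lines were grown in 96-well plates and treated with compound for 48 hours. GI50 is the concentration that inhibits growth by half. At the TGI there is no net growth.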

Each compound was assayed on SNB-19 CNS (assay: inhibition of tumour cell growth, NCI panel, 48 h).
In the case of `COc1cccc(/C=C2\C(=O)N(C(=O)c3ccc(NC(C)=O)cc3)N=C2C)c1`, the TGI is reported as > 100 µM. With `N#CCc1ccc(C(C#N)/C(CCCC(=O)Nc2cccc([N+](=O)[O-])c2)=N/NC(N)=S)cc1` (configuration not stated) the TGI was > 100 µM. In the case of `COC(C(O)c1ccc2c(c1)OCO2)P(=O)(c1ccccc1)c1ccccc1` (configuration not stated), the TGI is reported as > 100 µM. For `NCCCn1c2c(c3ccc([N+](=O)[O-])cc3c1=O)C(=O)c1cc(Br)ccc1-2`, the GI50 was 0.0379 µM. Compound `CC(C)c1ccc(C(c2ccc(OCC(=O)O)cc2)c2ccc(C(C)C)cc(=O)c2O)c(O)c(=O)c1` has a TGI of 28 µM. `N#C/C(=C\c1cc2ccccc2c2ccccc12)c1ccccc1` gave a TGI of 45.4 µM. For `CCOc1ccc2c(c1)[n+]([O-])c(-c1nc3ccccc3s1)c(N)[n+]2[O-]`, the TGI was > 100 µM. For `COc1ccc2c3c(coc13)C(CCC(=O)O)CC2` (configuration not stated), the TGI was > 100 µM. With `COC(=O)C12C3C4C1C1C2C3C41NC(=O)c1csc([C@@H](C[C@H](C(C)C)N(C)C(=O)[C@@H](NC(=O)[C@H]2CCCCN2C)C2CC2)OC(C)=O)n1` (some centres not stated) the GI50 was 0.077 µM and the TGI was > 33.3 µM. With `COc1ncc(-c2ccc3ncnc(Nc4cccc(Cl)c4)c3c2)cc1NS(=O)(=O)CCN1CCOCC1` the GI50 was 0.945 µM and the TGI was > 100 µM. In the case of `c1cc[c]([Pb]([c]2ccccc2)[c]2ccccc2)cc1`, the GI50 is reported as 16.5 µM and the TGI is reported as 38.7 µM. With `CC(=O)N1C/C(=C\c2ccc(N(C)C)cc2)C(=O)/C(=C/c2ccc(N(C)C)cc2)C1` the TGI was > 100 µM. With `CCC(=O)c1c(C(F)(F)F)n([O-])c2ccc(C)cc2[n+]1=O` the GI50 was 15.2 µM and the TGI was > 50 µM. For `O=C(O)[C@@H]1CCCCN1Cc1cc2cc3c(cc2c2cc(OCc4ccccc4)ccc12)OCO3`, the GI50 was 2.31 µM and the TGI was 8.86 µM. `COc1ccc(C2SCC(=O)N2NC(=O)Nc2c(C)nc3ccccn23)cc1` (configuration not stated) showed a GI50 of 21.7 µM and a TGI of 47.3 µM. `COC1=CC2(C=CC1=O)c1cc(OC)c(OC)cc1CCN2C(=O)c1ccccc1` (configuration not stated) was tested, and the TGI was > 100 µM. For `Cc1ccc2[nH]c(C(=O)NN3C(=O)C(C)SC34CCCC(C)C4)c(-c3ccccc3)c2c1` (configuration not stated), the GI50 was > 100 µM and the TGI was > 100 µM. With `Cc1[nH]c2ccccc2c1C1Cc2ccccc2N1C(=O)/C(Cl)=C/c1ccccc1` (configuration not stated) the TGI was > 100 µM.

The compounds below were run on SR leukemia (assay: inhibition of tumour cell growth, NCI panel, 48 h).
For `C=C(C)C1CCC2(C(=O)O)CCC3(C)C(CCC4C5(C)CCC(OC(=O)NCc6ccccc6)C(C)(C)C5CCC43C)C12` (configuration not stated), the GI50 was 2.22 µM and the TGI was > 100 µM. `Cc1ccc(-c2cc(=O)c3cc(C)c(C)c(C(=O)O)c3o2)cc1C` was tested, and the TGI was > 100 µM. For `O=C(/C=C/c1c(O)ccc2ccccc12)c1ccccc1`, the TGI was > 100 µM. In the case of `Fc1ccc(C2SCc3nc4ccccc4n32)cc1Cl` (configuration not stated), the TGI is reported as > 100 µM. In the case of `CC1(C)N=C(N)N=C(N)N1c1ccc(OCc2ccc(S(=O)(=O)F)c(Cl)c2)c(Cl)c1`, the GI50 is reported as 0.432 µM and the TGI is reported as > 100 µM. In the case of `CC(C)c1cc2c(O)c(c1)Cc1cc(C(C)C)cc(c1O)Cc1cc(C(C)C)cc(c1O)Cc1cc(C(C)C)cc(c1O)C2`, the TGI is reported as > 100 µM. `COc1cc2c(c(OC)c1OC)C(=O)[C@@H]1c3ccc([N+](=O)[O-])cc3C(=O)N(CCCBr)[C@H]21` was tested, and the GI50 was 3.92 µM and the TGI was > 100 µM. In the case of `N#CCc1ccc(C(C#N)/C(CCCC(=O)Nc2cccc([N+](=O)[O-])c2)=N/NC(N)=S)cc1` (configuration not stated), the TGI is reported as > 100 µM. In the case of `COC(C(O)c1ccc2c(c1)OCO2)P(=O)(c1ccccc1)c1ccccc1` (configuration not stated), the TGI is reported as > 100 µM. For `N#C/C(=C\c1cc2ccccc2c2ccccc12)c1ccccc1`, the TGI was 7.91 µM. In the case of `COC(=O)C12C3C4C1C1C2C3C41NC(=O)c1csc([C@@H](C[C@H](C(C)C)N(C)C(=O)[C@@H](NC(=O)[C@H]2CCCCN2C)C2CC2)OC(C)=O)n1` (some centres not stated), the GI50 is reported as < 0.00333 µM and the TGI is reported as > 33.3 µM. With `COc1ncc(-c2ccc3ncnc(Nc4cccc(Cl)c4)c3c2)cc1NS(=O)(=O)CCN1CCOCC1` the GI50 was 0.653 µM and the TGI was > 100 µM. For `c1cc[c]([Pb]([c]2ccccc2)[c]2ccccc2)cc1`, the GI50 was 14.4 µM and the TGI was 74.6 µM. `COc1ccc2nc3cc(Cl)ccc3c(NCCN)c2c1` showed a GI50 of 1.44 µM and a TGI of 5.4 µM. In the case of `CC(=O)N1C/C(=C\c2ccc(N(C)C)cc2)C(=O)/C(=C/c2ccc(N(C)C)cc2)C1`, the TGI is reported as > 100 µM. `CCC(=O)c1c(C(F)(F)F)n([O-])c2ccc(C)cc2[n+]1=O` was tested, and the GI50 was 0.675 µM and the TGI was > 50 µM. `Cc1[nH]c2ccccc2c1C1Cc2ccccc2N1C(=O)/C(Cl)=C/c1ccccc1` (configuration not stated) was tested, and the TGI was > 100 µM.

The compounds below were run on TK-10 renal (assay: inhibition of tumour cell growth, NCI panel, 48 h).
With `COc1ccc(/C(Cl)=C(\C=O)c2ccc([N+](=O)[O-])cc2)cc1` the TGI was > 73.6 µM. Work on `C=C(C)C1CCC2(C(=O)O)CCC3(C)C(CCC4C5(C)CCC(OC(=O)NCc6ccccc6)C(C)(C)C5CCC43C)C12` (configuration not stated) yielded a GI50 of 3.76 µM and a TGI of 58.4 µM. For `Cc1ccc(-c2cc(=O)c3cc(C)c(C)c(C(=O)O)c3o2)cc1C`, the TGI was > 100 µM. For `O=C(/C=C/c1c(O)ccc2ccccc12)c1ccccc1`, the TGI was > 100 µM. With `Cc1nc2ccccc2c(=O)n1-c1ccccc1F` the TGI was > 100 µM. `C=C[C@H]1C[C@@H]2C[C@@H]3[C@H]4C/C=C\C(=O)NCCCC5NC(=O)C(=C(O)/C=C/[C@@H]4CC(=O)[C@H]3[C@@H]2[C@H]1C)C5=O` (some centres not stated) showed a GI50 of 0.192 µM and a TGI of 0.419 µM. In the case of `Fc1ccc(C2SCc3nc4ccccc4n32)cc1Cl` (configuration not stated), the TGI is reported as 67.1 µM. In the case of `CC1=N/C(=C\c2cccc([N+](=O)[O-])c2)C(=O)O1`, the TGI is reported as > 100 µM. `Cn1c2ccccc2c2c3[nH]c(=O)[nH]c(=O)c3c3c4ccccc4n(C)c3c21` showed a GI50 of 1.91 µM and a TGI of 16.5 µM. In the case of `CC1(C)N=C(N)N=C(N)N1c1ccc(OCc2ccc(S(=O)(=O)F)c(Cl)c2)c(Cl)c1`, the GI50 is reported as 59.2 µM and the TGI is reported as > 100 µM. For `CO[C@H]1C=C[C@@]23c4cc5c(cc4CO[C@]2(O)CN(C)[C@H]3C1)OCO5`, the TGI was > 100 µM. For `CC(C)N1CN(C(C(=O)N[C@@H]2C(=O)N3C2SC(C)(C)C3C(=O)O)c2ccccc2)CSC1=S` (some centres not stated), the TGI was > 100 µM. For `CC(C)c1cc2c(O)c(c1)Cc1cc(C(C)C)cc(c1O)Cc1cc(C(C)C)cc(c1O)Cc1cc(C(C)C)cc(c1O)C2`, the TGI was > 100 µM. With `COc1ccc(/C=C\c2cc(OC)c(OC)c(OC)c2)cc1OC(=O)NCCN(C)C` the GI50 was > 47 µM and the TGI was > 100 µM. For `CCCCOC(=O)NC(=O)c1cn(C2CCCCC2)c(=O)[nH]c1=O`, the TGI was > 100 µM. `CC(C)CCCC(=O)CCCCCCC(=O)CCN(O)C(=O)C(N)CO` (configuration not stated) showed a TGI of 32.2 µM. In the case of `COc1cc2c(c(OC)c1)C1(CC(CC#N)C2)SCCS1` (configuration not stated), the TGI is reported as > 100 µM. In the case of `CCOC(=O)CCn1[nH]c(=O)c(Cl)c(Cl)c1=O`, the TGI is reported as > 100 µM. `COc1cc2c(c(OC)c1OC)C(=O)[C@@H]1c3ccc([N+](=O)[O-])cc3C(=O)N(CCCBr)[C@H]21` was tested, and the GI50 was 8.04 µM and the TGI was 34.9 µM. In the case of `COc1ccc(CNc2nc3cc(C(F)(F)F)ccc3nc2C)cc1OC`, the TGI is reported as 87.8 µM. `C/C=C1/C(=C/c2[nH]c(/C=c3\[nH]/c(=C/C4=NC(=O)C(CC)=C4C)c(C)c3CCC(=O)O)c(CCC(=O)O)c2C)NC(=O)C1C` (configuration not stated) was tested, and the GI50 was > 150 µg/mL and the TGI was > 150 µg/mL. With `COc1cccc(/C=C2\C(=O)N(C(=O)c3ccc(NC(C)=O)cc3)N=C2C)c1` the TGI was > 100 µM. In the case of `N#CCc1ccc(C(C#N)/C(CCCC(=O)Nc2cccc([N+](=O)[O-])c2)=N/NC(N)=S)cc1` (configuration not stated), the TGI is reported as > 100 µM. For `COC(C(O)c1ccc2c(c1)OCO2)P(=O)(c1ccccc1)c1ccccc1` (configuration not stated), the TGI was > 100 µM. In the case of `NCCCn1c2c(c3ccc([N+](=O)[O-])cc3c1=O)C(=O)c1cc(Br)ccc1-2`, the GI50 is reported as 0.267 µM and 0.28 µM and the TGI is reported as 0.942 µM. For `CC(C)c1ccc(C(c2ccc(OCC(=O)O)cc2)c2ccc(C(C)C)cc(=O)c2O)c(O)c(=O)c1`, the TGI was 42.8 µM. For `N#C/C(=C\c1cc2ccccc2c2ccccc12)c1ccccc1`, the TGI was > 58.9 µM. For `CCOc1ccc2c(c1)[n+]([O-])c(-c1nc3ccccc3s1)c(N)[n+]2[O-]`, the TGI was > 100 µM. With `COc1ccc2c3c(coc13)C(CCC(=O)O)CC2` (configuration not stated) the TGI was > 100 µM. For `COC(=O)C12C3C4C1C1C2C3C41NC(=O)c1csc([C@@H](C[C@H](C(C)C)N(C)C(=O)[C@@H](NC(=O)[C@H]2CCCCN2C)C2CC2)OC(C)=O)n1` (some centres not stated), the GI50 was 4.39 µM and the TGI was > 33.3 µM. In the case of `COc1ccc2nc3cc(Cl)ccc3c(NCCN)c2c1`, the GI50 is reported as 1.76 µM and the TGI is reported as 3.18 µM. In the case of `CC(=O)N1C/C(=C\c2ccc(N(C)C)cc2)C(=O)/C(=C/c2ccc(N(C)C)cc2)C1`, the TGI is reported as > 100 µM. In the case of `CCC(=O)c1c(C(F)(F)F)n([O-])c2ccc(C)cc2[n+]1=O`, the GI50 is reported as 0.812 µM and the TGI is reported as 6.61 µM. In the case of `O=C(O)[C@@H]1CCCCN1Cc1cc2cc3c(cc2c2cc(OCc4ccccc4)ccc12)OCO3`, the GI50 is reported as 3.36 µM and the TGI is reported as > 100 µM. For `COc1ccc(C2SCC(=O)N2NC(=O)Nc2c(C)nc3ccccn23)cc1` (configuration not stated), the GI50 was 22.6 µM and the TGI was 49 µM. `COC1=CC2(C=CC1=O)c1cc(OC)c(OC)cc1CCN2C(=O)c1ccccc1` (configuration not stated) was tested, and the TGI was > 100 µM. For `Cc1ccc2[nH]c(C(=O)NN3C(=O)C(C)SC34CCCC(C)C4)c(-c3ccccc3)c2c1` (configuration not stated), the GI50 was 89.4 µM and the TGI was > 100 µM. For `Cc1[nH]c2ccccc2c1C1Cc2ccccc2N1C(=O)/C(Cl)=C/c1ccccc1` (configuration not stated), the TGI was > 100 µM.
